In ChEMBL document CHEMBL2073873, “Identification of a novel human organic anion transporting polypeptide as a high affinity thyroxine transporter” (Mol Endocrinol, 2002):
Residues, ends and D or L forms follow the SMILES beside them.

T1: Solute carrier organic anion transporter family member 1C1 (Homo sapiens, UniProt Q9NYB5)
T1 sequence (Q9NYB5 whole entry): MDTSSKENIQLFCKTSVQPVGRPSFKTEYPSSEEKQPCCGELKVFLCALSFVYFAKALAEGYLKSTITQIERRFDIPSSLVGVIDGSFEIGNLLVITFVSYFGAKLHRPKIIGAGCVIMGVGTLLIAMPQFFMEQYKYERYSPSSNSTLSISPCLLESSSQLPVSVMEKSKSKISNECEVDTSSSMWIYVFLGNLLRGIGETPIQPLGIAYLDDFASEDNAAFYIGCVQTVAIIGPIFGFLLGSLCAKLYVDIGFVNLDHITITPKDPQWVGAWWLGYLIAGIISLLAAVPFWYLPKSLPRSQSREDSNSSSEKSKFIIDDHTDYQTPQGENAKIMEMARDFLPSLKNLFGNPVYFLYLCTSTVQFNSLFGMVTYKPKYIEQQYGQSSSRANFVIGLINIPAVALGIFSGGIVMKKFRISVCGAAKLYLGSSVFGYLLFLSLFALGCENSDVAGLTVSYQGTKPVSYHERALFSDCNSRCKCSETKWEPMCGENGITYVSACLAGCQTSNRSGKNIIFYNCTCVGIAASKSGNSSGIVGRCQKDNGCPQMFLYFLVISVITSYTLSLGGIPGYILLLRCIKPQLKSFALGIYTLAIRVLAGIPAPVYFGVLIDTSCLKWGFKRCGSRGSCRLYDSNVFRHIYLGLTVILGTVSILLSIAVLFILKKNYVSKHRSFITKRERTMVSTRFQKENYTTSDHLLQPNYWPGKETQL

B1: Solute carrier organic anion transporter family member 1C1 (Homo sapiens) (protein)
chain: T1 sequence (Q9NYB5 whole entry)

These molecules were tested against T1, Solute carrier organic anion transporter family member 1C1 (assay: (§1) TP_TRANSPORTER: uptake in OATP-F-expressing CHO cells). Conditions: hamster.
Type: functional, cell-based

Molecule	Activity
C=C[C@H]1C[N+]2(C)CC[C@H]1C[C@H]2[C@H](O)c1ccnc2ccc(OC)cc12	is not a substrate [-]
CC1(C)SSC(C)(C)[C@@H](NC(=O)[C@@H](N)Cc2ccc(O)cc2)C(=O)NCC(=O)N[C@@H](Cc2ccccc2)C(=O)N[C@H]1C(=O)O	is not a substrate [-]
CC(C)C[C@@H]1NC(=O)[C@@H](C(C)C)NC(=O)[C@@H]2CCCN2C(=O)[C@@H](CC(=O)O)NC(=O)[C@@H](Cc2c[nH]c3ccccc23)NC1=O [BQ-123] (HELM PEPTIDE1{L.[dW].[dD].P.[dV]}$PEPTIDE1,PEPTIDE1,1:R1-5:R2$$$V2.0)	is not a substrate [-]
CC(C)[C@H](NC(=O)[C@H](CCC(=O)O)NC(=O)[C@H](Cc1ccccc1)NC(=O)[C@@H](C)NC(=O)[C@@H](N)Cc1ccc(O)cc1)C(=O)N[C@H](C(=O)NCC(N)=O)C(C)C [DELTORPHIN II]	is not a substrate [-]
CCCCC[C@H](O)/C=C/[C@H]1[C@H](O)CC(=O)[C@@H]1C/C=C\CCCC(=O)O [DINOPROSTONE]	is not a substrate [-]
C[C@]12CC[C@@H]3c4ccc(O)cc4CC[C@H]3[C@@H]1CC[C@@H]2O[C@@H]1O[C@H](C(=O)O)[C@@H](O)[C@H](O)[C@H]1O [ESTRADIOL 17B GLUCURONIDE]	substrate [+]
C[C@]12CC[C@@H]3c4ccc(OS(=O)(=O)O)cc4CC[C@H]3[C@@H]1CCC2=O [ESTRONE SULFURIC ACID]	substrate [+]
C[C@H](CCC(=O)NCC(=O)O)[C@H]1CC[C@H]2[C@@H]3[C@H](O)C[C@@H]4C[C@H](O)CC[C@]4(C)[C@H]3C[C@H](O)[C@]12C [GLYCOCHOLIC ACID]	is not a substrate [-]
CCCCC/C=C\C\C=C/C=C/C=C/[C@@H](SC[C@@H](NC(=O)CC[C@H](N)C(=O)O)C(=O)NCC(=O)O)[C@@H](O)CCCC(=O)O [LEUKOTRIEN C4]	is not a substrate [-]
N[C@@H](Cc1cc(I)c(Oc2ccc(O)c(I)c2)c(I)c1)C(=O)O [LIOTHYRONINE]	substrate [+]
CN(Cc1cnc2nc(N)nc(N)c2n1)c1ccc(C(=O)N[C@@H](CCC(=O)O)C(=O)O)cc1 [METHOTREXATE]	is not a substrate [-]
C[C@@H]1O[C@@H](O[C@H]2C[C@@H](O)[C@]3(CO)[C@H]4[C@H](O)C[C@]5(C)[C@@H](C6=CC(=O)OC6)CC[C@]5(O)[C@@H]4CC[C@]3(O)C2)[C@H](O)[C@H](O)[C@H]1O [OUABAIN]	is not a substrate [-]
C[C@]12CC[C@H](OS(=O)(=O)O)CC1=CC[C@@H]1[C@@H]2CC[C@]2(C)C(=O)CC[C@@H]12 [PRASTERONE SULFURIC ACID]	is not a substrate [-]
O=C1OC(c2ccc(O)c(S(=O)(=O)[O-])c2)(c2ccc(O)c(S(=O)(=O)[O-])c2)c2c(Br)c(Br)c(Br)c(Br)c21.[Na+].[Na+] [SULFOBROMOPHTHALEIN SODIUM]	substrate [+]

These molecules were tested on N[C@@H](Cc1ccc(Oc2cc(I)c(O)c(I)c2)c(I)c1)C(=O)O (assay: as §1). Conditions: not given.
Type: functional, cell-based

Molecule	Km
B1	0.128 µM

What follows are molecules tested on N[C@@H](Cc1cc(I)c(Oc2cc(I)c(O)c(I)c2)c(I)c1)C(=O)O (assay: as §1). Conditions: not given.
Type: functional, cell-based

Molecule	Km
B1	0.0904 µM
